Data taken from patent US20240270739A1, “Heteroaryl Fluoroalkenes As DGK Inhibitors” (Incyte Corporation, priority 2023, published 2024).

Assays:
[1] = biological target: T1, DGKα (Homo sapiens, UniProt P23743); experiment: In vitro DGKα inhibition assay (ADP-Glo); type: biochemical; conditions: His-tagged human recombinant enzyme, 0.1 nM DGKα, 50 μM ATP, 20 μM DLG, 90 minute incubation
T1 construct: His; purchased Signal Chem D21-10BH
Protocol: (§1) The DGKα and DGKζ biochemical reactions were performed using His-tagged human recombinant enzymes (Signal Chem, DGKα, #D21-10BH; DGKζ, #D30-10H)) and DLG (Dilauroyl-sn-glycerol) lipid substrate (Signal Chem, #D430-59). ADP-Glo assay was performed using ADP-Glo™ kinase Assay kit (Promega, #V9104). The reactions were carried out in assay buffer containing 40 mM Tris, pH 7.5, 0.1% CHAPS, 0.1% Prionex, 40 mM NaCl, 5 mM MgCl2, 1 mM CaCl2, and 1 mM DTT. DGKα reactions contained 0.1 nM DGKα, 50 μM ATP, and 20 μM DLG. And DGKζ reactions contained 0.4 nM DGKζ, 30 μM ATP, and 20 μM DLG.
(§2) For compound inhibition studies, 40 nL test compound in DMSO was added to wells of white polystyrene plates in 384-well (Greiner, #784075) or 1536-well format (Greiner, #782075). Compounds were added with top concentration of 2 mM with 11 point, 3-fold dilution series. Enzyme solution (contains 2×DGK enzyme concentration in 1× assay buffer) was added to the plate in 2 μL/well volume, followed by 2 μL/well of substrate solution (contains 2× concentration of ATP and DLG substrate in 1× assay buffer). Plates were then centrifuged for 1 min at 1200 RPM and sealed or lidded. For 4 μL reaction volume, test compounds were therefore diluted 100× to final top concentration of […]. After 90 minute incubation, reactions were quenched by addition of 2 μL/well Promega ADP-Glo Reagent, followed by centrifugation and lidding. After 60 min incubation, 2 μL/well Promega Kinase Detection Reagent was added, plates centrifuged, and incubated for 30 min. Plates were then read using Luminescence method on BMG PHERAstar FSX plate reader. Percent inhibition was calculated and IC50s were determined using 4-parameter fit in Genedata Screener. Labcyte Echo acoustic dispenser was used for compound addition, and Formulatrix Tempest liquid handler was used for all reagent dispenses. The compounds of the disclosure were tested in one or more of the assays described above, and the resulting data are shown in Table A.

[2] = biological target: T2, DGKζ (Homo sapiens, UniProt Q13574); experiment: In vitro DGKζ inhibition assay (ADP-Glo); type: biochemical; conditions: His-tagged human recombinant enzyme, 0.4 nM DGKζ, 30 μM ATP, 20 μM DLG, 90 minute incubation
T2 construct: His; purchased Signal Chem D30-10H
T2 sequence (Q13574 whole entry): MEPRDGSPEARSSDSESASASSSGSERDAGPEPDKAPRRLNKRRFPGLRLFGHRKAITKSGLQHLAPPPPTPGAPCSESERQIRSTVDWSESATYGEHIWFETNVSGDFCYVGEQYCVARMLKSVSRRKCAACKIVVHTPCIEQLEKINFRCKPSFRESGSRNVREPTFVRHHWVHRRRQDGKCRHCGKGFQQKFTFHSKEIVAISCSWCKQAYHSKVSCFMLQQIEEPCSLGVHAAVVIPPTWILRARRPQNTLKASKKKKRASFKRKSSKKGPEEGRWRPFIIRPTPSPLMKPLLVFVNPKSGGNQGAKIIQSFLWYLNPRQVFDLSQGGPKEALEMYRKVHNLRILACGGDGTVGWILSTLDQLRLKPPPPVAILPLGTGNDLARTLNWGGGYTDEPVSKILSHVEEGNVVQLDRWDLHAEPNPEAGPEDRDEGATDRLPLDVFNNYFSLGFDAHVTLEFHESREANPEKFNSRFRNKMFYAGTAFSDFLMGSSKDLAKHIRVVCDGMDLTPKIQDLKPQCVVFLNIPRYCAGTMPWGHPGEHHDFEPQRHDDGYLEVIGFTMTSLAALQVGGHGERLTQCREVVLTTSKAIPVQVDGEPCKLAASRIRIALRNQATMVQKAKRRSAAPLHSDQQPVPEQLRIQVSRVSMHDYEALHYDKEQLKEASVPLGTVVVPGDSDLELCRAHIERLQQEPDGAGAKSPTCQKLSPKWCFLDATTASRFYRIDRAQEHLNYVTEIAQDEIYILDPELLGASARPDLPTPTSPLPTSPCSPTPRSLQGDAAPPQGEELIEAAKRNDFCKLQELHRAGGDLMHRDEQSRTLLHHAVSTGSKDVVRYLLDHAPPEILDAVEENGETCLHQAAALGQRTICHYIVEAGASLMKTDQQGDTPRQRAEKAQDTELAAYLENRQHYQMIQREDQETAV
Protocol: as §1, §2

T1 sequence (P23743 whole entry): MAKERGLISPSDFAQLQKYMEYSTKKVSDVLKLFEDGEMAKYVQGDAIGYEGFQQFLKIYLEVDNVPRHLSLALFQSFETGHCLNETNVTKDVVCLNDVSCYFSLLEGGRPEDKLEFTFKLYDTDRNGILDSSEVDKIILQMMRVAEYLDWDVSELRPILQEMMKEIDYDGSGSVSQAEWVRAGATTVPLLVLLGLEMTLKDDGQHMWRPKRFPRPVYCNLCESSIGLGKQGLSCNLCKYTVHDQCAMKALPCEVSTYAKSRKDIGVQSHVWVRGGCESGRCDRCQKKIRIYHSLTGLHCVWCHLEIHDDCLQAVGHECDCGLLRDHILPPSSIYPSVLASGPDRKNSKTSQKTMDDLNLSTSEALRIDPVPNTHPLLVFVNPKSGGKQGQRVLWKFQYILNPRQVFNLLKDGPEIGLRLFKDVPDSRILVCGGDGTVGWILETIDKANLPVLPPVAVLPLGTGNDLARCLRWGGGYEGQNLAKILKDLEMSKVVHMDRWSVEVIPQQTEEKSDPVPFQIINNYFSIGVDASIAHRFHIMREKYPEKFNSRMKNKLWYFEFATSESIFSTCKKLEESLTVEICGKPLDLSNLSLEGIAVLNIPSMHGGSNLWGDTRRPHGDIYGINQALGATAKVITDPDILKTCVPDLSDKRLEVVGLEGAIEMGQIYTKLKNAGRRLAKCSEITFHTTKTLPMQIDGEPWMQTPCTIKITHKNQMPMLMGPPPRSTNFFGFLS

SMILES	IC50 [1] [nM]	IC50 [2] [nM]
CCN1CC2(CCCN(c3c(/C=C(\F)c4ccn(-c5ccnnc5)n4)ccc(Oc4cccc(F)c4F)c3C(F)(F)F)C2)C1 [Example 19, (Z)-6-(3-(2,3-Difluorophenoxy)-6-(2-fluoro-2-(1-(pyridazin-4-yl)-1H-pyrazol-3-yl)vinyl)-2-(trifluoromethyl)phenyl)-2-ethyl-2,6-diazaspiro[3.5]nonane]	≤ 20	≤ 20
F/C(=C\c1ccc(Oc2cccc(F)c2F)c(C(F)(F)F)c1N1CCCC2(CN(CC3CC3)C2)C1)c1ccn(-c2ccnnc2)n1 [Example 20, (Z)-2-(Cyclopropylmethyl)-6-(3-(2,3-difluorophenoxy)-6-(2-fluoro-2-(1-(pyridazin-4-yl)-1H-pyrazol-3-yl)vinyl)-2-(trifluoromethyl)phenyl)-2,6-diazaspiro[3.5]nonane]	≤ 20	20 to 200
F/C(=C\c1ccc(Oc2ccccc2)c(C(F)(F)F)c1N1CCCC2(CCN(CC3CC3)CC2)C1)c1ccn(-c2ccnnc2)n1 [Example 21, (Z)-9-(Cyclopropylmethyl)-2-(6-(2-fluoro-2-(1-(pyridazin-4-yl)-1H-pyrazol-3-yl)vinyl)-3-phenoxy-2-(trifluoromethyl)phenyl)-2,9-diazaspiro[5.5]undecane]	20 to 200	≤ 20

Other lines, results leading:

IC50 [1] [nM]	IC50 [2] [nM]	SMILES
≤ 20	20 to 200	F/C(=C\c1ccc(Oc2cccc(F)c2F)c(Cl)c1N1CCCC2(CCN(CC3CC3)CC2)C1)c1ccn(-c2ccnnc2)n1 [Example 22, (Z)-2-(2-Chloro-3-(2,3-difluorophenoxy)-6-(2-fluoro-2-(1-(pyridazin-4-yl)-1H-pyrazol-3-yl)vinyl)phenyl)-9-(cyclopropylmethyl)-2,9-diazaspiro[5.5]undecane]
20 to 200	≤ 20	OCCN1CCC2(CCCN(c3c(/C=C(\F)c4csc(-c5ccnnc5)n4)ccc(Oc4ccccc4)c3C(F)(F)F)C2)CC1 [Example 23, (Z)-2-(2-(6-(2-Fluoro-2-(2-(pyridazin-4-yl)thiazol-4-yl)vinyl)-3-phenoxy-2-(trifluoromethyl)phenyl)-2,9-diazaspiro[5.5]undecan-9-yl)ethan-1-ol]
20 to 200	≤ 20	CCN1CCC2(CCCN(c3c(/C=C(\F)c4ccn(-c5ccnnc5)n4)ccc(Oc4ccccc4)c3C(F)(F)F)C2)CC1 [Example 24, (Z)-9-Ethyl-2-(6-(2-fluoro-2-(1-(pyridazin-4-yl)-1H-pyrazol-3-yl)vinyl)-3-phenoxy-2-(trifluoromethyl)phenyl)-2,9-diazaspiro[5.5]undecane]
